# Laboratory results as given in PubChem BioAssay AID1189 (EPA DSSTox, 2008).
# Calls of active or inactive are those of the source.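 The calls were made as follows: active = a tumor-causing dose value with its tumor site reported for any sex and species group of a rodent or other animal cancer study; inconclusive = only studies judged inadequate by the national testing program; inactive = tested in at least one study, none positive.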
# Test: DSSTox (CPDBAS) Carcinogenic Potency Database Summary SingleCellCall Results
# Settings: animal chronic carcinogenicity bioassays, CPDB summary call
# Procedure, shortened: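 Categorical carcinogenicity call compiled from published chronic rodent and other animal cancer bioassays; based on the most positive result across experiments for each sex-species, assigned on minimal evidence for or against activity.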
row,Structure (SMILES),outcome
1,CC(=O)Nc1ccc(S(=O)(=O)O)c2cc(S(=O)(=O)O)c(N=Nc3ccc(N=Nc4ccc(S(=O)(=O)O)cc4)c4ccc(S(=O)(=O)O)cc34)c(O)c12,inactive; active
2,ClC(Cl)=C(Cl)Cl,active; inactive
3,CC(=O)Nc1ccc(O)cc1,active; inactive
4,ClC(Br)Br,active
5,Nc1nc(N)nc(-c2ccccc2)n1,inactive; active
6,O=C1CCCCCN1,inactive
7,Cc1ccc(N=C=O)cc1N=C=O,active; inactive
8,C[C@]12CC[C@H]3C(=CCc4cc(OS(=O)(=O)O)ccc43)[C@@H]1CCC2=O,inactive; active
9,CCCCNC(=O)N(CCCC)N=O,active
10,Cl[C@H]1OCCO[C@@H]1Cl,inactive
11,CCCCNNCCCC,active; inactive
12,Nc1ccc2ccccc2c1,active
13,CN(C)C(=O)NC1CC2CC1C1CCCC21 (stereo not drawn),inactive
14,C=CC(=C)C,active
15,[Cl-].[Cl-].[Sn+2],inactive
16,C=CC1CC=CCC1 (stereo not drawn),active
17,CC(=O)Nc1nc(-c2ccc([N+](=O)[O-])o2)cs1,active
18,CCN(CC)c1cc2oc3cc(=[N+](CC)CC)c(C)cc-3c(-c3ccc(S(=O)(=O)O)cc3S(=O)(=O)[O-])c2cc1C,inactive
19,CCCCCN(N=O)C(N)=O,active
20,C[C@]12CC[C@H](OS(=O)(=O)O)CC1=CC[C@@H]1[C@@H]2CC[C@]2(C)C(=O)CC[C@@H]12,inactive; active
21,NC(=O)c1cnccn1,inactive
22,COC(=O)C(C)(C)Oc1ccc(-c2ccc(Cl)cc2)cc1,active
23,CN(CCCC(=O)c1cccnc1)N=O,active

row,Structure (SMILES),outcome
1,COc1cc2c(c3oc(=O)c4c(c13)CCOC4=O)C1C=COC1O2 (stereo not drawn),active
2,C=CC(=O)c1ccc2c(c1)OCO2,inactive
3,Cc1ccc2c(c1)C(N1CCN(C)CC1)=Nc1ccccc1S2,inactive
4,C=C(C)C(=O)OC,inactive; active
5,Nc1nc(/C=C/c2ccc([N+](=O)[O-])o2)no1,active
6,COP(=S)(OC)Oc1ccc(SC)c(C)c1,inactive
7,O=C(O)c1ccc(O)c(O)c1,inactive
8,ClC1C2(Cl)C3C4C5OC5C5C4C1(Cl)C(Cl)(C53)C2(Cl)Cl (stereo not drawn),inactive
9,OCN(CO)c1nc(N(CO)CO)nc(N(CO)CO)n1,active
10,CCN(CC)C(=S)S[Te](SC(=S)N(CC)CC)(SC(=S)N(CC)CC)SC(=S)N(CC)CC,inactive
11,Cc1ccc(Cl)cc1N,active
12,C=Cc1cccc(C)c1,inactive; active
13,CC(=O)O[C@@H]1[C@@H](O)C2OC3C=C(C)C(=O)C(O)[C@@]3(CO)[C@]1(C)[C@]21CO1 (stereo partly drawn),inactive
14,O=[N+]([O-])c1cc([N+](=O)[O-])c(Cl)c(Cl)c1Cl,inactive
15,N[C@@H](Cc1c[nH]c2ccccc12)C(=O)O,inactive
16,ClCOCCOCCl,active
17,CCN(CC)C(=S)S[Se](SC(=S)N(CC)CC)(SC(=S)N(CC)CC)SC(=S)N(CC)CC,active; inactive
18,Nc1ccc(Nc2ccccc2)cc1,inactive
19,O=S1(=O)CC=CC1,inactive
20,COc1ccc(C(=O)/C(Br)=C\C(=O)O)cc1,active
21,Cl/C=C/CCl,active
22,CC(=O)OC/C=C(\C)CCC=C(C)C,inactive
23,CC(=O)OCc1ccccc1,active; inactive

row,Structure (SMILES),outcome
1,C=CC(=O)O,inactive; active
2,O=[N+]([O-])c1cc([As](=O)(O)O)ccc1O,inactive
3,CCCCC1(COC(=O)CCC(=O)O)C(=O)N(c2ccccc2)N(c2ccccc2)C1=O,inactive
4,CC(=O)Nc1ccc(S(=O)(=O)c2ccc(NC(C)=O)cc2)cc1,active; inactive
5,O=C(O)CC(O)(CC(=O)O)C(=O)O,inactive
6,Cc1cc2ncccc2c2nc(N)n(C)c12,active
7,C=CCc1ccc(OC)cc1,active
8,O=C1OC(O)C(C(Cl)Cl)=C1Cl (stereo not drawn),active
9,Nc1ccc(Sc2ccc(N)cc2)cc1,active
10,COc1ccc(N)cc1,inactive
11,CNC(=S)NC,inactive
12,CC(C)NCC(O)COc1ccc(CC(N)=O)cc1 (stereo not drawn),inactive; active
13,Cc1ccc(N)cc1,active
14,CC(=O)Nc1nc(NC(C)=O)nc(-c2ccc([N+](=O)[O-])o2)n1,active
15,ClC(Cl)=C(c1ccc(Cl)cc1)c1ccc(Cl)cc1,active
16,CC(=O)Nc1ccc(OCC(O)CNC(C)C)cc1 (stereo not drawn),inactive
17,O=S1OCC2C(CO1)C1(Cl)C(Cl)=C(Cl)C2(Cl)C1(Cl)Cl (stereo not drawn),inactive; active
18,ClC1=C(Cl)[C@]2(Cl)[C@@H]3[C@H]4C[C@H]([C@@H]5O[C@H]45)[C@@H]3[C@@]1(Cl)C2(Cl)Cl,inactive
19,CC(O)CN(CC(C)O)N=O (stereo not drawn),active
20,CC(C)(C)NCC(O)c1cc(O)cc(O)c1 (stereo not drawn),active
21,OB(O)O,inactive; active
22,CCC1(CC)C(=O)N=C(O)NC1=O,active; inactive
23,O=C1CCc2ccccc2O1,active; inactive

row,Structure (SMILES),outcome
1,COc1ccc(C(Cl)=C(c2ccc(OC)cc2)c2ccc(OC)cc2)cc1,inactive
2,O[C@@H]([C@H](O)[C@@H](O)CBr)[C@@H](O)CBr,active
3,COc1cc(OC)c2c3c(c(=O)oc2c1)C(=O)CC3,inactive; active
4,CC(=O)Oc1c(C)c(C)c2c(c1C)CCC(C)(CCCC(C)CCCC(C)CCCC(C)C)O2 (stereo not drawn),inactive
5,CNc1ncnc2nc[nH]c12,inactive
6,S=C1NCCN1,active; inactive
7,Cc1ccc(S(=O)(=O)OCCN(C)N=O)cc1,active
8,CCc1nc(N)nc(N)c1-c1ccc(Cl)cc1,inactive
9,O=C1N(CCO)CCN1/N=C/c1ccc([N+](=O)[O-])o1,active
10,O=[N+]([O-])c1ccc(Cl)c([N+](=O)[O-])c1,inactive
11,CC(=O)CN(CCO)N=O,active
12,O=C(O)COc1cc(Cl)c(Cl)cc1Cl,inactive
13,CCCCN(N=O)C(=N)N[N+](=O)[O-],inactive
14,C[N+](C)(C)CCO,inactive
15,O=NN1CSCSC1,inactive
16,CC(O)CN(CC(O)CO)N=O (stereo not drawn),active
17,CC(=O)Nc1ccc(-c2ccc(F)cc2)cc1,active
18,O=[N+]([O-])c1ccc2ncccc2c1,inactive; active
19,ClC1(Cl)C2(Cl)C3(Cl)C4(Cl)C(Cl)(Cl)C5(Cl)C3(Cl)C1(Cl)C5(Cl)C24Cl (stereo not drawn),active; inactive
20,Nc1ccc(Cl)c(N)c1,active
21,NC(N)=O,inactive
22,CC(C)=NO,active
23,[K+],active; inactive

row,Structure (SMILES),outcome
1,O.O.O.O.O=C([O-])CC(O)(CC(=O)[O-])C(=O)[O-].[Fe+3],inactive
2,O=NN1CCCC1c1cccnc1 (stereo not drawn),active
3,CCOC(=O)N(C)N=O,active
4,FC(F)=C(F)F,active; inactive
5,CN(N=O)c1ccc(F)cc1,active
6,CSCCC(N)C(=O)O (stereo not drawn),inactive
7,Cc1ccc(/C(=C\CN2CCCC2)c2ccccn2)cc1,inactive
8,CC(Oc1c(Cl)cccc1Cl)C1=NCCN1 (stereo not drawn),inactive
9,Clc1ccc(Sc2cc(Cl)c(Cl)cc2Cl)cc1,inactive
10,COc1cc(CNC(=O)CCCC/C=C/C(C)C)ccc1O,active
11,CNCCc1ccc(OC(=O)C(C)C)c(OC(=O)C(C)C)c1,inactive
12,O=C(O)c1ccc(N=Nc2ccc(O)c(C(=O)O)c2)cc1,inactive
13,C#C[C@]1(OC(C)=O)CC[C@H]2[C@@H]3CCC4=CC(=O)CC[C@@H]4[C@H]3CC[C@@]21C,active
14,N,inactive
15,CS(=O)(=O)OCCCCOS(C)(=O)=O,inactive
16,O=C(O)c1ccc([N+](=O)[O-])cc1,active
17,CCCCCN(CCCCC)N=O,active; inactive
18,FC(F)(F)CCl,active; inactive
19,O=P1(NCCCl)OCCCN1CCCl (stereo not drawn),active; inactive
20,CC(C(=O)O)c1cccc(C(=O)c2ccccc2)c1 (stereo not drawn),inactive
21,COC1[C@@H](O[C@@H]2O[C@H](C)[C@@H](O[C@H]3C[C@@](C)(O)[C@H](OC(=O)CC(C)C)[C@H](C)O3)[C@H](N(C)C)[C@H]2O)[C@@H](CC=O)C[C@@H](C)[C@@H](O)/C=C/C=C/C[C@@H](C)OC(=O)C[C@H]1OC(C)=O (stereo partly drawn),inactive; active
22,C/C=C/Cl,active
23,O=C1C(Cl)=C(Cl)C(=O)c2ccccc21,inactive

row,Structure (SMILES),outcome
1,Nc1ccc2oc3ccccc3c2c1,active
2,O=C1CCCCC1,inactive
3,C/C1=C\C=C(\C(C)C)[C@@H](O)C/C(C)=C/CC/C(C)=C/CC1,inactive
4,Cc1ccc(Cc2cnc(NCCSCc3ccc(CN(C)C)o3)[nH]c2=O)cn1,active
5,C=C1C(CCl)(CCl)C2(Cl)C(Cl)C(Cl)C1(Cl)C2(Cl)Cl (stereo not drawn),active; inactive
6,Cc1cc(Cc2ccc(N)c(C)c2)ccc1N,active
7,CCOC(=O)/C=C\C(=O)OCC,inactive; active
8,Nc1ccc(N)cc1,inactive
9,CC1(C)COC1=O,active
10,Nc1ccc2nc3ccccn3c2n1,active; inactive
11,CCOP(=S)(OCC)Oc1nc(Cl)c(Cl)cc1Cl,inactive
12,CCN(CC)C(=S)S,inactive; active
13,C1CCC(C(CC2CCCCN2)C2CCCCC2)CC1 (stereo not drawn),inactive
14,O=NN1CCCCO1,active
15,CN(C)C(=S)S,inactive
16,COc1cc(N=Nc2ccccc2)ccc1N,active; inactive
17,NN,active
18,C/C=C(\C)C(=O)O[C@@H]1CCN2CC=C(COC(=O)C(O)(C(C)C)C(C)O)[C@H]12 (stereo partly drawn),active
